Measured values: patent publication US20230330178A1, “USE OF POLYPEPTIDE IN DRUG FOR PREVENTING AND TREATING PNEUMONIA” (priority 2020, published 2023)
Where two headings read alike, the source gives them in different places.

What was measured:
[1] = tested on: models of pneumonia in rats induced by mixed bacteria solution of Staphylococcus aureus, Streptococcus pneumoniae, and Escherichia coli; experiment: Lung function test in rat pneumonia model induced by mixed bacteria; type: in vivo, SD rats
Description: (§1) Bacterial pneumonia is the most common pneumonia, is also one of the most common infectious diseases, and is caused by bacterial infection. Main pathogenic bacteria of the bacterial pneumonia include Streptococcus pneumoniae, Staphylococcus aureus, Escherichia coli, and the like, which pose a great threat to the health of children and the elderly. In this experiment, a mixed bacteria solution of Staphylococcus aureus, Streptococcus pneumoniae, and Escherichia coli was instilled into the trachea to induce models of pneumonia in rats. Pharmacodynamic effects of a peptide on pneumonia were evaluated by observing effects of the peptide inhaled through the nose and mouth on the models of pneumonia caused by mixed bacteria infection.
(§2) 80 SD rats, SPF grade, half male and half female, were selected and randomly divided into 8 groups according to sex and body weight, including 6 rats in each of a blank control group and a model evaluation group, 8 rats in a blank administration group, and 12 rats in each of a model control group, an erythromycin group, a budesonide group, a low-dose polypeptide treatment group, and a high-dose polypeptide treatment group.
(§3) Animals in the blank administration group were not modeled, and inhaled a high-concentration polypeptide aerosol (0.48 mg/L) through nose and mouth every day. Animals in the blank control group were instilled with a 0.5 mL 0.9% sodium chloride injection through trachea. After the remaining groups were slightly anesthetized with ether, the model control group, the erythromycin group, the budesonide group, the low-dose polypeptide treatment group, and the high-dose polypeptide treatment group were instilled with a 1×10^8 CFU/mL mixed bacteria solution of Staphylococcus aureus, Streptococcus pneumoniae, and Escherichia coli through trachea, 0.5 mL/rat, respectively, and the blank control group was instilled with a 0.9% sodium chloride injection of a same volume.
(§4) A specific modeling method was as follows: a rat was anesthetized by ether inhalation and lied on an anatomical plate at an angle of 30-45°, trachea of the rat was exposed under an otoscope, a long puncture needle was connected to a 1 mL syringe and inserted into the trachea, each rat was injected with 0.5 mL of mixed bacteria, the puncture needle was pulled out after the injection, the rat was still kept at the original tilt position for about 10 min, and the bacteria solution flowed into bronchus and alveoli due to gravity to cause infection, so as to induce a rat pneumonia model.
(§5) Each group was administrated for the first time at 2 h after modeling. After the experiment begun, 7.16 mg/mL and 71.6 mg/mL peptide solutions were atomized into aerosol particles with target concentrations of 0.07 and 0.48 mg/L every day, and the animals in the low-dose peptide treatment group and the high-dose peptide treatment group (0.54 mg/kg and 3.7 mg/kg, corresponding to drug concentrations 0.07 and 0.48 mg/L respectively) inhaled the aerosol particles with corresponding concentrations through mouth and nose respectively for 7 consecutive days, 10 min/time, 3 times a day; the blank administration group (cumulative dose 22.2 mg/kg, corresponding to a drug concentration 0.48 mg/L) inhaled 0.48 mg/L peptide aerosol particles through mouth and nose every day for 7 consecutive days, 20 min/time, 3 times a day; the blank control group and the model control group inhaled a 0.9% sodium chloride solution for the same time according to the same method; the erythromycin group and the budesonide group were administrated with a 5 mg/mL erythromycin solution and a 0.05 mg/mL budesonide suspension respectively for the same time according to the same method; and body weight of each group was tested every day.

[2] = tested on: models of pneumonia in rats induced by mixed bacteria solution of Staphylococcus aureus, Streptococcus pneumoniae, and Escherichia coli; experiment: Arterial blood gas in rat pneumonia model induced by mixed bacteria; type: in vivo, SD rats; settings: for PaCO2: partial pressure of carbon dioxide / PaO2: partial pressure of oxygen / arterial blood pH: pneumonia model rats
Description: as §1, §2, §3, §4
as §5, with “day. […]” for “day.”

Escherichia coli = experiment: animal or person; type: in vivo; settings: for Number of escherichia coli: lung tissue of pneumonia model rats; for inhibition at 50 µg/mL / inhibition at 5000 µg/mL, 18 mg/kg: Escherichia coli, in Rattus norvegicus, inhaled or nasal, vs model control group
Experimental: as §3, §4, §5
(§6) Except the blank administration group, half animals of the remaining groups were randomly selected for lung function test, gross anatomy examination, and pathological test on D4 day, and lungs of 3 animals in each group were selected for bacteria culture and counting; and on D8 day, the remaining animals were subjected to lung function test, gross anatomy examination, and pathological test, and lungs of 3 animals in each group were selected for bacteria culture and counting (the blank control group and the blank administration group were not examined).
(§7) Experimental steps of bacteria culture: except the blank administration group, six animals were randomly selected from each of the remaining groups (three animals were randomly selected from the first and last anatomies), left middle lobe lung tissues were taken, washed with 0.9% sodium chloride injection, added with double weight of 0.9% sodium chloride injection, and ground into homogenate, the homogenate was inoculated into a meat extract agar medium and cultured at 37° C. for 16 to 18 h, bacteria were isolated, and each isolated bacteria suspension was diluted to 10^−1, 10^−2, 10^−3, 10^−4, 10^−5, 10^−6, 10^−7 and 10^−8 according to 10 times gradient, namely, 9 mL normal saline plus 1 mL bacteria suspension was 10^−1, and so on. […]

Staphylococcus aureus = experiment: animal or person; type: in vivo; settings: for Number of staphylococcus aureus: lung tissue of pneumonia model rats; for inhibition at 50 µg/mL / inhibition at 5000 µg/mL, 18 mg/kg: Staphylococcus aureus, in Rattus norvegicus, inhaled or nasal, vs model control group
Experimental: as §3, §4, §5, §6, §7

Streptococcus pneumoniae = experiment: animal or person; type: in vivo; settings: for Number of streptococcus pneumoniae: lung tissue of pneumonia model rats; for inhibition at 50 µg/mL / inhibition at 5000 µg/mL, 18 mg/kg: Streptococcus pneumoniae, in Rattus norvegicus, inhaled or nasal, vs model control group
Experimental: as §3, §4, §5, §6, §7

[3] = tested on: models of pneumonia in rats induced by mixed bacteria solution of Staphylococcus aureus, Streptococcus pneumoniae, and Escherichia coli; experiment: Pathological test of lung tissue (HE) in rat pneumonia model; type: in vivo, SD rats; settings: erythromycin 5 mg/mL solution (18 mg/kg) inhaled
Description: as §1, §2
Animals in the blank administration group were not modeled, and inhaled a high-concentration polypeptide aerosol (0.48 mg/L) through nose and mouth every day. […]

[4] = D4, budesonide 0.05 mg/mL suspension (0.18 mg/kg) inhaled
[5] = D8, budesonide 0.05 mg/mL suspension (0.18 mg/kg) inhaled
[6] = D4, erythromycin 5 mg/mL solution (18 mg/kg) inhaled
[7] = D8, erythromycin 5 mg/mL solution (18 mg/kg) inhaled

## CCCC1O[C@@H]2C[C@H]3[C@@H]4CCC5=CC(=O)C=C[C@]5(C)[C@H]4[C@@H](O)C[C@]3(C)[C@]2(C(=O)CO)O1 (some centres unmarked) [Budesonide, budesonide]
[1]; [4]
  FEV200 (forced expiratory volume): 2.72 ± 0.72 mL
  FEV200/FVC: 85.78 ± 8.00%
  FVC: forced vital capacity: 3.13 ± 0.59 mL
  VT: tidal volume: 1.86 ± 0.69 mL
  f: respiratory rate: 130 ± 39 time/min
[1]; [5]
  FEV200 (forced expiratory volume): 3.43 ± 0.69 mL
  FEV200/FVC: 89.77 ± 4.58%
  FVC: forced vital capacity: 3.80 ± 0.65 mL
  VT: tidal volume: 1.63 ± 0.27 mL
  f: respiratory rate: 126 ± 11 time/min
[2]; [4]
  PaCO2: partial pressure of carbon dioxide: 52.87 ± 13.34 mmHg
  PaO2: partial pressure of oxygen: 75.73 ± 30.92 mmHg
  arterial blood pH: 7.31 ± 0.07
[2]; [5]
  PaCO2: partial pressure of carbon dioxide: 34.35 ± 8.17 mmHg
  PaO2: partial pressure of oxygen: 86.67 ± 24.78 mmHg
  arterial blood pH: 7.45 ± 0.06
Escherichia coli; [4]
  Number of escherichia coli: 3737 ± 1115 CFU/mL
Escherichia coli; [5]
  Number of escherichia coli: 890 ± 409 CFU/mL
Escherichia coli; read-out: Inhibition rate of escherichia coli, D4, budesonide 0.05 mg/mL suspension (0.18 mg/kg) inhaled
  inhibition at 50 µg/mL: -20.6%
Escherichia coli; read-out: Inhibition rate of escherichia coli, D8, budesonide 0.05 mg/mL suspension (0.18 mg/kg) inhaled
  inhibition at 50 µg/mL: 7.58%
Staphylococcus aureus; [4]
  Number of staphylococcus aureus: 2577 ± 655 CFU/mL
Staphylococcus aureus; [5]
  Number of staphylococcus aureus: 560 ± 269 CFU/mL
Staphylococcus aureus; read-out: Inhibition rate of staphylococcus aureus, D4, budesonide 0.05 mg/mL suspension (0.18 mg/kg) inhaled
  inhibition at 50 µg/mL: 48.7%
Staphylococcus aureus; read-out: Inhibition rate of staphylococcus aureus, D8, budesonide 0.05 mg/mL suspension (0.18 mg/kg) inhaled
  inhibition at 50 µg/mL: 83.4%
Streptococcus pneumoniae; [4]
  Number of streptococcus pneumoniae: 1810 ± 957 CFU/mL
Streptococcus pneumoniae; [5]
  Number of streptococcus pneumoniae: 433 ± 276 CFU/mL
Streptococcus pneumoniae; read-out: Inhibition rate of streptococcus pneumoniae, D4, budesonide 0.05 mg/mL suspension (0.18 mg/kg) inhaled
  inhibition at 50 µg/mL: 61.7%
Streptococcus pneumoniae; read-out: Inhibition rate of streptococcus pneumoniae, D8, budesonide 0.05 mg/mL suspension (0.18 mg/kg) inhaled
  inhibition at 50 µg/mL: 72.7%

## CC[C@H]1OC(=O)[C@H](C)[C@@H](O[C@H]2C[C@@](C)(OC)[C@@H](O)[C@H](C)O2)[C@H](C)[C@@H](O[C@@H]2O[C@H](C)C[C@H](N(C)C)[C@H]2O)[C@](C)(O)C[C@@H](C)C(=O)[C@H](C)[C@@H](O)[C@]1(C)O [Erythromycin, erythromycin]
[1]; [6]
  FEV200 (forced expiratory volume): 2.84 ± 0.54 mL
  FEV200/FVC: 90.65 ± 4.78 %
  FVC: forced vital capacity: 3.12 ± 0.52 mL
  VT: tidal volume: 1.59 ± 0.39 mL
  f: respiratory rate: 132 ± 27 time/min
[1]; [7]
  FEV200 (forced expiratory volume): 3.40 ± 0.12 mL
  FEV200/FVC: 92.36 ± 2.94 %
  FVC: forced vital capacity: 3.68 ± 0.20 mL
  VT: tidal volume: 1.67 ± 0.24 mL
  f: respiratory rate: 130 ± 25 time/min
[2]; [6]
  PaCO2: partial pressure of carbon dioxide: 50.38 ± 6.60 mmHg
  PaO2: partial pressure of oxygen: 69.68 ± 15.16 mmHg
  arterial blood pH: 7.33 ± 0.05
[2]; D8, erythromycin group (18 mg/kg), no statistical difference
  PaO2 increase vs model control group: 37.17%
[2]; [7]
  PaCO2: partial pressure of carbon dioxide: 39.37 ± 5.60 mmHg
  PaO2: partial pressure of oxygen: 71.08 ± 14.74 mmHg
  arterial blood pH: 7.42 ± 0.04
[3]; D4
  pathological changes of lungs compared with the model control group: significantly alleviated
[3]; D8
  lung tissue lesions: tended to normal
Escherichia coli; [6]
  Number of escherichia coli: 447 ± 146 CFU/mL
Escherichia coli; [7]
  Number of escherichia coli: 80 ± 2 CFU/mL
Escherichia coli; read-out: Inhibition rate of escherichia coli, D4, erythromycin 5 mg/mL solution (18 mg/kg) inhaled
  inhibition at 5000 µg/mL, 18 mg/kg: 85.6%
Escherichia coli; read-out: Inhibition rate of escherichia coli, D8, erythromycin 5 mg/mL solution (18 mg/kg) inhaled
  inhibition at 5000 µg/mL, 18 mg/kg: 91.7%
Staphylococcus aureus; [6]
  Number of staphylococcus aureus: 633 ± 146 CFU/mL
Staphylococcus aureus; [7]
  Number of staphylococcus aureus: 113 ± 31 CFU/mL
Staphylococcus aureus; read-out: Inhibition rate of staphylococcus aureus, D4, erythromycin 5 mg/mL solution (18 mg/kg) inhaled
  inhibition at 5000 µg/mL, 18 mg/kg: 87.4%
Staphylococcus aureus; read-out: Inhibition rate of staphylococcus aureus, D8, erythromycin 5 mg/mL solution (18 mg/kg) inhaled
  inhibition at 5000 µg/mL, 18 mg/kg: 96.7%
Streptococcus pneumoniae; [6]
  Number of streptococcus pneumoniae: 1223 ± 287 CFU/mL
Streptococcus pneumoniae; [7]
  Number of streptococcus pneumoniae: 67 ± 15 CFU/mL
Streptococcus pneumoniae; read-out: Inhibition rate of streptococcus pneumoniae, D4, erythromycin 5 mg/mL solution (18 mg/kg) inhaled
  inhibition at 5000 µg/mL, 18 mg/kg: 74.1%
Streptococcus pneumoniae; read-out: Inhibition rate of streptococcus pneumoniae, D8, erythromycin 5 mg/mL solution (18 mg/kg) inhaled
  inhibition at 5000 µg/mL, 18 mg/kg: 95.8%
